For 22 compounds, inhibition results are on record in patent publication US20090306059A1, “CYCLIC AMINE DERIVATIVE HAVING SUBSTITUTED ALKYL GROUP” (priority 2005, published 2009).

The subject of the assay is platelet aggregation caused by ADP in platelet-rich plasma (PRP) after oral administration. Description: Test Example 2: ex vivo platelet aggregation inhibitory effect. The class given is in vivo, rat (male Sprague-Dawley). The settings on record: 10 mg/kg orally, 4 hours before blood sampling, rat PRP, ADP final concentration 3 μM, maximum platelet aggregation ratio, read-out: Test Example 1 (% inhibition) 10 mg/kg. As for the experimental part: Male Sprague-Dawley rats (8-week old, Japan SLC, Inc.), 3 to 4 animals per group, were used for the test. The platelet aggregation was measured with an automatic platelet aggregometer (MCM Hema Tracer 313M, MC Medical, Inc.) by a partially modified method of Bom et al., The Journal of Physiology, Vol. 168, Section 178 (1963). Test compounds suspended in 5% Arabian gum solution or 10% dimethylacetamide/64% polyethylene glycol 400/16% Tween 80 solution were orally administered in a dose ratio of 1 mL/kg 4 hours before blood sampling. Vehicle was orally administered 4 hours in a dose ratio of 1 mL/kg before the sampling of the blood for the control group. 6.3 ml of blood was sampled from the ventral aorta of a rat anesthetized with pentobarbital (40 mg/kg) using 3.8% (w/v) sodium citrate solution (0.7 ml) as an anticoagulant. The obtained blood containing citrate was centrifuged (230 g, 15 minutes, room temperature) to separate PRP. The blood after the separation of PRP was further centrifuged (2,000 g, 10 minutes, room temperature) to separate PPP. After the number of blood platelet in PRP was measured with a multi-item automatic blood corpuscle counter (KX-21N, Sysmex Corporation), PPP was added thereto to adjust the blood platelet to 5×10^8/ml. After PRP (240 μl) was pipetted into cuvettes, the cuvettes were set in the automatic platelet aggregometer. After preliminary warming (37° C.) for 1.5 minutes, 10 μl of ADP solution (final concentration 3 μM) was added to cause platelet aggregation. Platelet aggregation was measured for 5 minutes and the maximum platelet aggregation ratio was determined.

Where a name gives a salt, the structure may show the parent alone.

As to `CCOC(=O)CN1CCN(C/C=C2\CN(C(C(=O)C3CC3)c3ccccc3F)CCC2SC(C)=O)CC1=O` (stereo not shown) [Example 13, (E)-4-(Acetylsulfanyl)-1-[2-cyclopropyl-1-(2-fluorophenyl)-2-oxoethyl]-3-{2-[4-(ethoxycarbonylmethyl)-3-oxopiperazin-1-yl]ethylidene}piperidine], the inhibition at 10 mg/kg stood at 63%. Then `CCOC(=O)CCN1CCN(C/C=C2\CN(C(C(=O)C3CC3)c3ccccc3F)CCC2SC(C)=O)CC1=O` (stereo not shown) [Example 17, (E)-4-(Acetylsulfanyl)-1-[2-cyclopropyl-1-(2-fluorophenyl)-2-oxoethyl]-3-(2-{4-[2-(ethoxycarbonyl)ethyl]-3-oxopiperazin-1-yl}ethylidene)piperidine], with 92%; and `CCOC(=O)CCN1CCN(C/C=C2\CN(C(C(=O)C3CC3)c3ccccc3F)CCC2SC(C)=O)C(=O)C1` (stereo not shown) [Example 21, (E)-4-(Acetylsulfanyl)-1-[2-cyclopropyl-1-(2-fluorophenyl)-2-oxoethyl]-3-(2-{4-[2-(ethoxycarbonyl)ethyl]-2-oxopiperazin-1-yl}ethylidene)piperidine dihydrochloride], with 90%; and `CC(=O)SC1CCN(C(C(=O)C2CC2)c2ccccc2F)C/C1=C\CN1CCN(CCC(=O)O)CC1=O` (stereo not shown) [Example 24, (E)-4-(Acetylsulfanyl)-3-(2-{4-[2-(carboxyethyl)]-2-oxopiperazin-1-yl}ethylidene)-1-[2-cyclopropyl-1-(2-fluorophenyl)-2-oxoethyl]piperidine dihydrochloride], with 85%. Then `COC(=O)[C@@H]1CCCN1C/C=C1\CN(C(C(=O)C2CC2)c2ccccc2F)CCC1SC(C)=O` (stereo partly drawn) [Example 25, (E)-4-(Acetylsulfanyl)-1-[2-cyclopropyl-1-(2-fluorophenyl)-2-oxoethyl]-3-{2-[(2S)-(methoxycarbonyl)pyrrolidin-1-yl]ethylidene}piperidine dihydrochloride], with 92%. As to `COC(=O)[C@@H]1CCCN1C/C=C1\CN(C(C(=O)C2CC2)c2ccccc2F)CCC1S` (stereo partly drawn) [Example 26, (E)-1-[2-Cyclopropyl-1-(2-fluorophenyl)-2-oxoethyl]-3-{2-[(2S)-(methoxycarbonyl)pyrrolidin-1-yl]ethylidene}-4-sulfanylpiperidine dihydrochloride], the inhibition at 10 mg/kg is 92%. As for `CCOC(=O)C1CCN(C/C=C2\CN(C(C(=O)C3CC3)c3ccccc3F)CCC2SC(C)=O)CC1` (stereo not shown) [Example 29, (E)-4-(Acetylsulfanyl)-1-[2-cyclopropyl-1-(2-fluorophenyl)-2-oxoethyl]-3-{2-[4-(ethoxycarbonyl)piperidin-1-yl]ethylidene}piperidine dihydrochloride], the inhibition at 10 mg/kg was found to be 89%. As for `CCOC(=O)C1CCN(C/C=C2\CN(C(C(=O)C3CC3)c3ccccc3F)CCC2S)CC1` (stereo not shown) [Example 30, (E)-1-[2-Cyclopropyl-1-(2-fluorophenyl)-2-oxoethyl]-3-{2-[4-(ethoxycarbonyl)piperidin-1-yl]ethylidene}-4-sulfanylpiperidine dihydrochloride], the inhibition at 10 mg/kg was 93%. For `O=C(O)C1CCN(C/C=C2\CN(C(C(=O)C3CC3)c3ccccc3F)CCC2S)CC1` (stereo not shown) [Example 31, (E)-3-{2-[4-(Carboxypiperidine)-1-yl]ethylidene}-1-[2-cyclopropyl-1-(2-fluorophenyl)-2-oxoethyl]-4-sulfanylpiperidine dihydrochloride], the inhibition at 10 mg/kg stood at 82%. Regarding `CC(=O)SC1CCN(C(C(=O)C2CC2)c2ccccc2F)C/C1=C\CO` (stereo not shown) [Example 32, (E)-4-(Acetylsulfanyl)-1-[2-cyclopropyl-1-(2-fluorophenyl)-2-oxoethyl]-3-(2-hydroxyethylidene)piperidine], the inhibition at 10 mg/kg turned out to be 86%. For `CCOC(=O)CN1CCC(/C=C2\CN(C(C(=O)C3CC3)c3ccccc3F)CCC2SC(C)=O)CC1` (stereo not shown) [Example 36, (E)-4-(Acetylsulfanyl)-1-[2-cyclopropyl-1-(2-fluorophenyl)-2-oxoethyl]-3-{[1-(ethoxycarbonylmethyl)piperidin-4-yl]methylidene}piperidine dihydrochloride] the value was 80%; for `CCOC(=O)CN1CCC(/C=C2\CN(C(C(=O)C3CC3)c3ccccc3F)CCC2S)CC1` (stereo not shown) [Example 38, (E)-1-[2-Cyclopropyl-1-(2-fluorophenyl)-2-oxoethyl]-3-{[1-(ethoxycarbonylmethyl)piperidin-4-yl]methylidene}-4-sulfanylpiperidine dihydrochloride], 66%; for `C/C(Cn1cc(C(=O)O)cn1)=C1/CN(C(C(=O)C2CC2)c2ccccc2F)CCC1S` (stereo not shown) [Example 62, (E)-3-{[2-(4-Carboxy-1H-pyrazol-1-yl)-1-methyl]ethylidene}-1-[2-cyclopropyl-1-(2-fluorophenyl)-2-oxoethyl]-4-sulfanylpiperidine hydrochloride], 94%.

Consider `O=C(O)C/C=C1\CN(C(C(=O)C2CC2)c2ccccc2F)CCC1S` (stereo not shown) [Example 64, (E)-3-(2-Carboxyethylidene)-1-[2-cyclopropyl-1-(2-fluorophenyl)-2-oxoethyl]-4-sulfanylpiperidine hydrochloride], for which the inhibition at 10 mg/kg came to 94%. With `CC(=O)SC1CCN(C(C(=O)C2CC2)c2ccccc2F)C/C1=C/CO` (stereo not shown) [Example 66, (Z)-4-(Acetylsulfanyl)-1-[2-cyclopropyl-1-(2-fluorophenyl)-2-oxoethyl]-3-(2-hydroxyethylidene)piperidine hydrochloride], the inhibition at 10 mg/kg turned out to be 87%. For `O=C(O)CCCN1CCN(C/C=C2\CN(C(C(=O)C3CC3)c3ccccc3F)CCC2S)C(=O)C1` (stereo not shown) [Example 72, (E)-3-(2-{4-[3-(Carboxypropyl)]-2-oxopiperazin-1-yl}ethylidene)-1-[2-cyclopropyl-1-(2-fluorophenyl)-2-oxoethyl]-4-sulfanylpiperidine dihydrochloride], the inhibition at 10 mg/kg stood at 76%. For `COC(=O)[C@@H]1C[C@@H](O)CN1C/C=C1\CN(C(C(=O)C2CC2)c2ccccc2F)CCC1SC(C)=O` (stereo partly drawn) [Example 78, (E)-4-(Acetylsulfanyl)-1-[2-cyclopropyl-1-(2-fluorophenyl)-2-oxoethyl]-3-{2-[(2S,4R)-4-hydroxy-2-(methoxycarbonyl)pyrrolidin-1-yl]ethylidene}piperidine dihydrochloride] the value was 75%; for `CCOC(=O)CN(C)C/C=C1\CN(C(C(=O)C2CC2)c2ccccc2F)CCC1SC(C)=O` (stereo not shown) [Example 81, (E)-4-(Acetylsulfanyl)-1-[2-cyclopropyl-1-(2-fluorophenyl)-2-oxoethyl]-3-{2-[N-(ethoxycarbonylmethyl)-N-methylamino]ethylidene}piperidine dihydrochloride], 83%. On to `CCOC(=O)CN(C)C/C=C1\CN(C(C(=O)C2CC2)c2ccccc2F)CCC1S` (stereo not shown) [Example 82, (E)-1-[2-Cyclopropyl-1-(2-fluorophenyl)-2-oxoethyl]-3-{2-[N-(ethoxycarbonylmethyl)-N-methylamino]ethylidene}-4-sulfanylpiperidine dihydrochloride], for which the inhibition at 10 mg/kg worked out at 81%. For `CCOC(=O)CN(C)C/C=C1/CN(C(C(=O)C2CC2)c2ccccc2F)CCC1SC(C)=O` (stereo not shown) [Example 84, (Z)-4-(Acetylsulfanyl)-1-[2-cyclopropyl-1-(2-fluorophenyl)-2-oxoethyl]-3-{2-[N-(ethoxycarbonylmethyl)-N-methylamino]ethylidene}piperidine dihydrochloride], the inhibition at 10 mg/kg was 82%. As for `CCOC(=O)CN(C)C/C=C1/CN(C(C(=O)C2CC2)c2ccccc2F)CCC1S` (stereo not shown) [Example 85, (Z)-1-[2-Cyclopropyl-1-(2-fluorophenyl)-2-oxoethyl]-3-{2-[N-(ethoxycarbonylmethyl)-N-methylamino]ethylidene}-4-sulfanylpiperidine dihydrochloride], the inhibition at 10 mg/kg was determined as 82%. Consider `CCOC(=O)CCCN(C)C/C=C1/CN(C(C(=O)C2CC2)c2ccccc2F)CCC1SC(C)=O` (stereo not shown) [Example 89, (Z)-4-(Acetylsulfanyl)-1-[2-cyclopropyl-1-(2-fluorophenyl)-2-oxoethyl]-3-(2-{N-[3-(ethoxycarbonyl)propyl]-N-methylamino}ethylidene)piperidine dihydrochloride], for which the inhibition at 10 mg/kg was determined as 83%.
